Values joined by “and” are separate entries in the source; they are usually repeats but may differ in a detail not shown here. Equal values may be shown once.
Key:
Type in all cases: physicochemical
[1] = Residual unreacted amustaline by LCMS, Example 2 (3-container kit)
Experimental: Another study was performed to evaluate the effect of container transfer on residual levels of amustaline after pathogen-inactivation of whole blood using a 3-container kit of the present disclosure to allow for one or two transfer steps from the initial (e.g., first) container and a similar filter set as Example 1. Six ABO matched whole blood units in anticoagulant were pooled and split into six ~450 mL units transferred into the first blood bag container of the kit comprising Transfufol 3226 PVC film (Renolit), followed by severing and sealing the pooled donor blood bag, and subsequent connection by tubing welding of a filter set to the same input port (e.g., attached tubing) of the first container, for transferring amustaline and GSH into the whole blood. Amustaline and GSH were added to the whole blood units at final concentrations of 0.2 mM and 2.0 mM, respectively, followed by transfer of the mixture to the second bag (Transfufol 3226 PVC film) and incubated at 22° C. At 22 hr, samples were taken for analysis along with transfer of the mixture to the third bag (Transfufol 3226 PVC film), followed by further incubation at 22° C., with additional samples taken for analysis at 24 hr (i.e., 2 hr post-final transfer) and 26 hr (i.e., 4 hr post-final transfer).
(§1) Samples were analyzed by LCMS to determine the level of residual, unreacted amustaline as previously described.

[2] = Residual unreacted amustaline by LCMS, Example 5 (2-container kits, transfer at 18, 20 or 22 hr); details: Units 15-21, 2-container kit, transfer time 22 hr, 22° C.
Experimental: A further study was performed to evaluate additional conditions for the preparation of pathogen-inactivated whole blood using amustaline and GSH in 2-container kits of the present disclosure (e.g., FIG. 3b). Amustaline and GSH were added to the whole blood units at 0.2 mM and 2.0 mM final concentrations, respectively, in the first container. […] Following transfer to the second container the mixtures were further incubated at 22° C., with sampling for analysis at 2 hr intervals as shown in Table 6.
as §1

[3] = Residual unreacted amustaline by LCMS, Example 6 (treatment in blood collection bags); details: for Residual amustaline levels in pathogen-inactivated whole blood, 20 hr / Residual amustaline levels in pathogen-inactivated whole blood, 22 hr / Residual amustaline levels in pathogen-inactivated whole blood, 24 hr: 22° C.
Experimental: More specifically, whole blood units were collected from donors and treated in either Teruflex (Terumo, BB*AGD506A2) blood collection bags (Units 2-7) or Leucoflex (MacoPharma, LQE7230LD) blood collection bags (Units 9-14) containing anticoagulant and integrated into a kit of the present disclosure. Six ABO-matched whole blood units were pooled and split into a control unit and six test units of ~450 mL each. Control units 1 and 8 used kits described in previous Examples. A filter set as previously described was sterile docked to the whole blood transfer tubing of the container that had been sealed and severed, followed by addition of amustaline and GSH to final concentrations of about 0.2 mM and 2.0 mM, respectively. GSH was added first, followed by addition of amustaline within 30 minutes. The mixtures were then incubated at 22° C. for 20 hr, with samples taken for analysis and transfer of the mixtures to the second integrally connected container for test Units 2-7 and 9-14, followed by further incubation and sampling at 2 hr intervals (i.e., 22 hr, 24 hr) for all Units as shown in Table 7.

[4] = Residual amustaline by LCMS, Example 6 further example (direct donor collection into 2-container kit); details: donor blood collected into 2-container kit with CPDA-1; 22° C. 20 hours, second container 2-4 hours
Experimental: In another example, a 2-container kit comprising a treatment container and a filter set (e.g., described above) for introducing the amustaline/GSH (e.g., FIG. 8c) is used to collect from a donor 450 mL of whole blood into the first container that contains 63 mL of anticoagulant CPDA-1 (e.g., blood:anticoagulant ratio approximately 7:1), through the first inlet port. The collection line is then closed using a medical tubing clamp and the whole blood and anticoagulant solution are mixed. The pathogen inactivation compound amustaline and the quencher GSH are next added to the whole blood in the first container through the second port, to final concentrations of about 0.2 mM and 2.0 mM, respectively. The mixture of whole blood, PIC and quencher are incubated at 22° C. for 20 hours, followed by transfer of the mixture to the second container, clamping the tubing between the first and second containers, and incubating the mixture at 22° C. for a further 2-4 hours to provide a pathogen-inactivated whole blood unit.

[5] = Residual amustaline, Example 8 (2-container processing before component preparation); details: Units 2-7
Experimental: Additionally, a study was performed to evaluate plasma and red blood cells prepared from a pathogen-inactivated whole blood composition, either shortly after the whole blood PI treatment process, or after storing the pathogen-inactivated whole blood at 4° C. prior to preparing the plasma and red blood cell components. Donor whole blood units were pooled and split into seven units (e.g., to standardize across units), and subjected to treatment conditions as follows. Unit 1 was the control and treated only with saline, while units 2-7 were treated with amustaline and GSH, at concentrations of about 0.2 mM and 2.0 mM, respectively. Following addition of the amustaline and GSH, or the saline, in the first container (bag), the units were incubated at 22° C. for 22 hours, and then transferred to the second container (bag). Sampling was done at the time of transfer, and also at 24 hours and 26 hours (2 or 4 hours post-transfer, also incubated at 22° C.), for analysis of residual amustaline, hemolysis and/or fibrinogen and Factor VIII levels. […] Additionally, at Days 2, 5 and 7, samples were removed from the stored pathogen-inactivated whole blood, centrifuged to obtain plasma and red blood cells, and similarly analyzed. […]

[6] = Unit 1, control unit (kit of previous Examples, not transferred), collection bag T
[7] = Unit 8, control unit (kit of previous Examples, not transferred), collection bag M
[8] = Units 2-7, treated in Teruflex (T) blood collection bag, to second container at 20 hr
[9] = Units 9-14, treated in Leucoflex (M) blood collection bag, to second container at 20 hr

O=C(CCNc1c2ccccc2nc2ccccc12)OCCN(CCCl)CCCl [amustaline]
Residual amustaline levels in pathogen-inactivated whole blood, 22 hr ([1]; Units 1-6, 3-container kit (PVC), moved to second bag after amustaline/GSH addition, 22° C., 22 hr, at transfer to third bag): 1.46 nM and 1.39 nM and 1.35 nM and 1.96 nM and 1.84 nM and 1.55 nM | Residual amustaline levels in pathogen-inactivated whole blood, 26 hr ([1]; Units 1-6, 3-container kit (PVC), third bag from 22 hr, 22° C., 26 hr (4 hr post-final transfer)): BLOQ (BLOQ = Below Limit of Quantitation (e.g., < 0.75 nM)) | residual amustaline levels after transfer to third bag ([1]; third bag after 22 hr, further 22° C. for 2 hr or 4 hr, all samples): below 1 nM | Residual amustaline levels in pathogen-inactivated whole blood, 24 hr ([2]; 24 hr): BLOQ (BLOQ = Below Limit of Quantitation (e.g., <0.75 nM)) | Residual amustaline levels in pathogen-inactivated whole blood, 26 hr ([2]; 26 hr): BLOQ (BLOQ = Below Limit of Quantitation (e.g., <0.75 nM)) | Residual amustaline levels in pathogen-inactivated whole blood, 20 hr ([3]; 20 hr (at transfer), Units 2-7, treated in Teruflex (T) blood collection bag, to second container at 20 hr): 2.12e-09 M and 2.32e-09 M and 1.29e-09 M and 1.62e-09 M and 1.53e-09 M and 1.92e-09 M | Residual amustaline levels in pathogen-inactivated whole blood, 20 hr ([3]; 20 hr (at transfer), Units 9-14, treated in Leucoflex (M) blood collection bag, to second container at 20 hr): 1.36e-09 M and 1.32e-09 M and 1.44e-09 M and 1.34e-09 M and 1.49e-09 M and 1.4e-09 M | Residual amustaline levels in pathogen-inactivated whole blood, 20 hr ([3]; 20 hr, Unit 1, control unit (kit of previous Examples, not transferred), collection bag T): 2.35e-09 M | Residual amustaline levels in pathogen-inactivated whole blood, 20 hr ([3]; 20 hr, Unit 8, control unit (kit of previous Examples, not transferred), collection bag M): 2.62e-09 M | Residual amustaline levels in pathogen-inactivated whole blood, 22 hr [3, 6]: 1.61 nM | Residual amustaline levels in pathogen-inactivated whole blood, 22 hr [3, 7]: 1.93 nM | Residual amustaline levels in pathogen-inactivated whole blood, 22 hr [3, 8]: BLOQ (BLOQ = Below Limit of Quantitation (e.g., < 0.75 nM)) | Residual amustaline levels in pathogen-inactivated whole blood, 22 hr [3, 9]: BLOQ (BLOQ = Below Limit of Quantitation (e.g., < 0.75 nM)) | Residual amustaline levels in pathogen-inactivated whole blood, 24 hr [3, 6]: 1.81 nM | Residual amustaline levels in pathogen-inactivated whole blood, 24 hr [3, 7]: 1.85 nM | Residual amustaline levels in pathogen-inactivated whole blood, 24 hr [3, 8]: BLOQ (BLOQ = Below Limit of Quantitation (e.g., < 0.75 nM)) | Residual amustaline levels in pathogen-inactivated whole blood, 24 hr [3, 9]: BLOQ (BLOQ = Below Limit of Quantitation (e.g., < 0.75 nM)) | Residual amustaline levels, Units transferred to the second bag at 20 hr ([3]; Units treated in blood collection bags and transferred to the second bag at 20 hr): below the limit of quantitation | Residual amustaline levels in the pathogen-inactivated whole blood preparation [4]: below 1 nm | Residual amustaline levels in pathogen-inactivated whole blood, 22 hr ([5]; 22 hr (time of transfer), first container 22° C. for 22 hours, then second container): 1.46 nM and 1.39 nM and 1.35 nM and 1.96 nM and 1.84 nM and 1.55 nM | Residual amustaline levels in pathogen-inactivated whole blood, 26 hr ([5]; 26 hr (4 hours post-transfer, 22° C.), second container from 22 hr): BLOQ (BLOQ = Below Limit of Quantitation (e.g., < 0.75 nM))
